Assays:
Type in all cases: functional
Saccharomyces cerevisiae [1] = test: (§1) MMV: Growth assays were conducted using the prototrophic S. cerevisiae strain JHY222. Each MMV compound (0.1 mM) was tested in minimal media containing dextrose as a carbon source (Yeast Nitrogen Base, Dextrose; YNBD). The growth rate in the presence of each MMV compound was calculated as follows: (i) the first 10 OD readings were averaged and subtracted from all OD readings of the corresponding curve to set the baseline of the growth curve to zero, and (ii) the area under the curve (AUC) was then calculated as the sum of all OD readings. […] A relative growth value was calculated as follows: AUC(DRUG) - AUC(DMSO)/AUC(DMSO); where AUC(DMSO) represents growth measured in a DMSO control well that was on the same microtiter plate of the drug-treated culture.
Saccharomyces cerevisiae [2] = test: as §1, with “ethanol and glycerol” for “dextrose”, “as” for “as a”, “sources” for “source”, “Ethanol, Glycerol; YNBEG).” for “Dextrose; YNBD).”
Saccharomyces cerevisiae [3] = test: as §1, with “rich” for “minimal”, “Extract, Peptone,” for “Nitrogen Base,”, “YPD).” for “YNBD).”

| Structure (SMILES) | Relative Growth (Saccharomyces cerevisiae [1]) | Relative Growth (Saccharomyces cerevisiae [2]) | Relative Growth (Saccharomyces cerevisiae [3]) |
| --- | --- | --- | --- |
| Cc1cc(C=C2SC(=Nc3ccccc3)N(C3CCCC3)C2=O)c(C)n1-c1ccc(Cl)cc1 | -0.1823 | -0.2078 | 0.0207 |
| CCOC(=O)C1(Cc2ccccc2)CCN(Cc2cccc(OC)c2O)CC1 | -0.0215 | -0.0203 | -0.0248 |
| O=C(Nc1ccc(Br)cc1)Nc1cccc(Cl)c1 | -0.1739 | -0.1301 | -1.0018 |
| CSC1=NC(=Nc2c(C)cccc2C)C2(CCC(C(C)(C)C)CC2)N1c1ccc(Cl)cc1 (centres undefined) | 0.0233 | 0.0048 | -0.0962 |
| Cc1cc(Nc2ccc(C)c(Cl)c2)n2nc(C(F)(F)F)nc2n1 | 0.1169 | -0.6431 | -0.0311 |
| CN(C)c1ccc(-c2nc3cc(N)ccc3[nH]2)cc1 | -0.0068 | 0.1829 | 0.2129 |
| N=c1c2ccccc2nnn1-c1cccc(C(F)(F)F)c1 | -0.1559 | -0.1336 | -0.0528 |
| O=C(Nc1cccc(C2=NCCN2)c1)Nc1cccc(C2=NCCN2)c1 [IMIDOCARB] | 0.0218 | 0.0151 | -0.365 |
| CC1CN(C(=O)c2sc3ccccc3c2Cl)CC(C)O1 (centres undefined) | 0.0985 | -0.1107 | -0.0005 |
| COc1cc(C(=O)Nc2ccc(-c3nc4ccccc4[nH]3)cc2)cc(OC)c1OC | -0.5664 | -0.2463 | -0.1004 |
| CCn1nc(-c2ccc(C(=O)OC)cc2)nc2c(=O)n(C)c(=O)nc1-2 | 0.0968 | 0.1078 | 0.0103 |
| CCOc1ccc(/C=C/c2nc(=O)c3ccccc3o2)cc1 | 0.0067 | 0.0498 | 0.0045 |
| COc1ccc2c(c1)C1(Nc3ccccc3-c3nc4ccccc4n31)C(=O)N2 (centres undefined) | 0.0329 | -0.0059 | -0.0036 |
| CCOC(=O)c1cnc2ccc(CC)cc2c1O | 0.0544 | -0.0424 | -0.243 |
| CC(=O)c1sc(NC(=O)Nc2ccc(C)cc2C)nc1C | -0.0182 | 0.0857 | -0.0731 |
| CCCCCCc1cc2cc(-c3nc4ccccc4[nH]3)c(=Nc3ccccc3C)oc2cc1O | 0.1107 | -0.1213 | -0.0113 |
| Nc1ccn([C@@H]2O[C@H](CO)[C@@H](O)[C@H]2O)c(=O)n1 [CYTIDINE] | 0.1163 | -0.4063 | -0.0768 |
| Cl.Cn1c(=O)n(C)c2cc(CNCCNc3ccnc4cc(Cl)ccc34)ccc21 | 0.301 | 0.2785 | -0.0297 |
| CCN(CC)c1cc(C)c2cc(NC(=O)c3cccc(OC)c3)ccc2n1 | -0.0149 | 0.0148 | 0.0048 |
| Cc1ccccc1OCCSc1nc2ccc(NC(=O)c3ccccc3)cc2s1 | -0.1178 | -0.0554 | -0.3917 |
| COc1ccc(CNC(=O)c2cc3c(=O)n4ccccc4nc3n(CCc3ccccc3)c2=N)cc1 | -0.2162 | -0.0439 | -0.0554 |
| CCCCCCOC(=O)C1=C(C)NC(=O)NC1c1ccccc1F (centres undefined) | 0.2134 | -0.2346 | -0.0098 |

| Structure (SMILES) | Relative Growth (Saccharomyces cerevisiae [1]) | Relative Growth (Saccharomyces cerevisiae [2]) | Relative Growth (Saccharomyces cerevisiae [3]) |
| --- | --- | --- | --- |
| COc1ccc(C2NCCc3c2[nH]c2ccccc32)cc1CN1CCN(c2ccc(F)cc2)CC1.Cl (centres undefined) | 0.0397 | -0.0259 | -0.0229 |
| O=C(NNc1cc(N2CCCC2)nc(N2CCCC2)n1)c1ccccc1 | 0.0342 | -0.0043 | -0.9952 |
| CCCCOC(=O)c1ccc(Nc2cc(C)nc3ccc(OC)cc23)cc1 | -0.0919 | -0.3112 | -0.1158 |
| Oc1ccc(C(=C(Cl)Cl)c2ccc(O)cc2)cc1 | -0.227 | -0.5689 | 0.0294 |
| CCCCCn1c(=N)n(CC(O)COc2cccc(C)c2)c2ccccc21.Cl (centres undefined) | -0.2633 | -0.7976 | 0.0144 |
| CCCc1c(C)nc2ccccc2c1O | -0.1078 | -0.1372 | -0.0347 |
| COc1cc(-c2nc(-c3ccccc3)c(-c3ccccc3)[nH]2)cc(OC)c1O | 0.0542 | -0.1558 | -0.0158 |
| COCCN(C(=O)Cc1cccs1)C(C(=O)NCc1ccc(OC)cc1)c1ccc(C(C)C)cc1 (centres undefined) | 0.0051 | 0.2007 | 0.0044 |
| Cc1cc(Nc2ccc(OCc3ccccc3)cc2)nc2cc(O)ccc12 | -0.1895 | 0.3239 | 0.0868 |
| O=C(c1ccccc1F)N(Cc1ccc(Cl)cc1)c1ccccn1 | 0.0025 | -0.0049 | -0.0537 |
| Cc1ccc2cc3c(N)c4c(C)ccc(C)c4nc3nc2c1 | 0.1003 | 0.0509 | 0.0134 |
| O=C(NC1CCN(Cc2ccccc2)CC1)c1cc(-c2ccncc2)nc2ccc(Cl)cc12 | 0.1716 | -0.2602 | -0.0217 |
| CN(C)CCNc1cc(-c2ccccc2)nc2ccccc12 | 0.1058 | 0.0694 | -0.0237 |
| O=C(NCCCN1CCC(N2CCCCC2)CC1)C1=Cc2cc(Br)ccc2OC1 | -0.0044 | -0.1063 | -0.0702 |
| CCOc1cc2c(cc1OCC)C(c1cc(OC)c(O)cc1Cl)NCC2 (centres undefined) | 0.0876 | 0.0748 | -0.0054 |
| CCOC(=O)c1c(C)n(-c2ccc(Cl)cc2)c2ccc(OC(=O)C=Cc3ccccc3)cc12 | 0.0402 | 0.0277 | -0.0067 |
| COc1ccc(C(=O)Nc2ccc(Cl)cc2C(=O)Nc2ccncc2)cc1 | -0.1015 | 0.1271 | -0.2989 |
| COc1ccc(C(=O)C(CCC(CNC(C)(C)C)C(=O)c2ccc(OC)cc2)CNC(C)(C)C)cc1 (centres undefined) | -0.0754 | -0.4347 | -0.0341 |
| CCOc1ccccc1NC(=O)CN1CCN(C(=O)c2ccco2)CC1 | 0.1567 | -0.0386 | -0.0315 |
| O=C(NCC1Cc2cccc(-c3ccncc3)c2O1)c1csc2c1CCCC2 (centres undefined) | 0.0203 | 0.1029 | 0.0158 |
| Cl.c1ccc2c(NCCCCCCNc3c4c(nc5ccccc35)CCCC4)c3c(nc2c1)CCCC3 | -0.2454 | -0.2596 | -0.0331 |

Reference: ChEMBL document CHEMBL3301546, “MMV Malaria Box yeast growth screening”
